Results taken from PubChem BioAssay (NCI).
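Where inhibition never reached the appropriate level, the endpoint shown equals the highest concentration tested. Otherwise, values were interpolated linearly from a five-concentration, 48-hour dose response in 96-well plates. TGI marks complete inhibition of growth.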

How the values were obtained:
Experiment in all cases: NCI anticancer screen, dose series, 48 h
[1] = tested on: UACC-62 melanoma
[2] = tested on: MOLT-4 leukemia
[3] = tested on: T-47D breast
[4] = tested on: MDA-N
[5] = tested on: MDA-MB-435
[6] = tested on: K-562 leukemia
[7] = tested on: UO-31 renal
[8] = tested on: OVCAR-8 ovarian
[9] = tested on: RPMI-8226 leukemia
[10] = tested on: OVCAR-3 ovarian
[11] = tested on: LOX IMVI melanoma
[12] = tested on: MCF7 breast
[13] = tested on: SK-MEL-2 melanoma
[14] = tested on: COLO 205 colon
[15] = tested on: IGROV1 ovarian
[16] = tested on: MDA-MB-231 breast
[17] = tested on: ACHN renal
[18] = tested on: CCRF-CEM leukemia
[19] = tested on: 786-0 renal
[20] = tested on: SK-OV-3 ovarian
[21] = tested on: HCC-2998 colon
[22] = tested on: MALME-3M melanoma
[23] = tested on: A549 NSCLC
[24] = tested on: TK-10 renal
[25] = tested on: BT-549 breast
[26] = tested on: SW-620 colon
[27] = tested on: M14 melanoma
[28] = tested on: SK-MEL-28 melanoma
[29] = tested on: HCT-116 colon
[30] = tested on: NCI-H226 lung
[31] = tested on: NCI-H460 lung
[32] = tested on: NCI/ADR-RES ovarian
[33] = tested on: DU-145 prostate
[34] = tested on: SK-MEL-5 melanoma
[35] = tested on: NCI-H23 lung
[36] = tested on: SN12C renal
[37] = tested on: SNB-75 CNS
[38] = tested on: CAKI-1 renal
[39] = tested on: UACC-257 melanoma
[40] = tested on: HOP-92 NSCLC
[41] = tested on: SF-295 CNS
[42] = tested on: HOP-62 NSCLC
[43] = tested on: OVCAR-5 ovarian
[44] = tested on: SF-268 CNS
[45] = tested on: RXF 393 renal
[46] = tested on: SR leukemia
[47] = tested on: SNB-19 CNS
[48] = tested on: EKVX NSCLC
[49] = tested on: PC-3 prostate
[50] = tested on: OVCAR-4 ovarian
[51] = tested on: HS 578T breast
[52] = tested on: U251 CNS
[53] = tested on: NCI-H522 lung
[54] = tested on: HCT-15 colon
[55] = tested on: KM12 colon
[56] = tested on: A498 renal
[57] = tested on: DMS 273 small cell lung
[58] = tested on: SF-539 CNS
[59] = tested on: HT29 colon
[60] = tested on: HOP-18 NSCLC
[61] = tested on: LXFL 529 NSCLC
[62] = tested on: DLD-1 colon
[63] = tested on: SNB-78 CNS
[64] = tested on: M19-MEL melanoma
[65] = tested on: HL-60(TB) leukemia
[66] = tested on: DMS 114 small cell lung

Q: Which results are given for `CN1CCN(c2cc3nc(-c4ccc(Cl)cc4)[nH]c3cc2F)CC1`?
A: TGI [1]: 18.9 µM; TGI [2]: 41.1 µM; TGI [3]: 65.7 µM; TGI [4]: 50.4 µM; TGI [5]: 32.1 µM; TGI [6]: 28.7 µM; TGI [7]: 20.6 µM; TGI [8]: > 100 µM; TGI [9]: 41.4 µM; TGI [10]: 25.7 µM; TGI [11]: > 65.6 µM; TGI [12]: > 45.2 µM; TGI [13]: 34.5 µM; TGI [14]: 51.1 µM; TGI [15]: 36.1 µM; TGI [16]: 60.8 µM; TGI [17]: 29.8 µM; TGI [18]: 82.8 µM; TGI [19]: 67.2 µM; TGI [20]: 59.5 µM; TGI [21]: 16.7 µM; TGI [22]: 23.4 µM; TGI [23]: > 59 µM; TGI [24]: 15.4 µM; TGI [25]: 31.1 µM; TGI [26]: > 64.4 µM; TGI [27]: 8.4 µM; TGI [28]: 30.8 µM; TGI [29]: > 54.4 µM; TGI [30]: 33.9 µM; TGI [31]: > 53.9 µM; TGI [32]: 67.6 µM; TGI [33]: 83.3 µM; TGI [34]: 35.5 µM; TGI [35]: 34.2 µM; TGI [36]: > 100 µM; TGI [37]: 50.1 µM; TGI [38]: 73.4 µM; TGI [39]: 26.2 µM; TGI [40]: > 70.4 µM; TGI [41]: 28.8 µM; TGI [42]: 30.6 µM; TGI [43]: 48.9 µM; TGI [44]: 51.3 µM; TGI [45]: 30.9 µM; TGI [46]: > 100 µM; TGI [47]: > 81.8 µM; TGI [48]: 72.3 µM; TGI [49]: 40.8 µM; TGI [50]: > 62.7 µM; TGI [51]: 42.6 µM; TGI [52]: > 75.9 µM; TGI [53]: 32 µM; TGI [54]: 17.9 µM; TGI [55]: > 45.2 µM; TGI [56]: 47.4 µM

Q: For `c1ccc(C2=NOC3C4CCC(C4)C23)cc1` (stereo not given), which TGI [1] is on record?
A: > 100 µM

Q: And the TGI [2]?
A: > 100 µM

Q: What about the TGI [57] of the same compound?
A: > 100 µM

Q: What about the TGI [6] of the same compound?
A: > 100 µM

Q: And the TGI [7]?
A: > 100 µM

Q: And the TGI [8]?
A: > 100 µM

Q: And the TGI [9]?
A: > 100 µM

Q: What about the TGI [10] of the same compound?
A: > 100 µM

Q: And the TGI [13]?
A: > 100 µM

Q: What about the TGI [58] of the same compound?
A: > 100 µM

Q: What about the TGI [59] of the same compound?
A: > 100 µM

Q: What about the TGI [14] of the same compound?
A: > 100 µM

Q: And the TGI [15]?
A: > 100 µM

Q: And the TGI [60]?
A: > 100 µM

Q: What about the TGI [17] of the same compound?
A: > 100 µM

Q: What about the TGI [61] of the same compound?
A: > 100 µM

Q: And the TGI [18]?
A: > 100 µM

Q: And the TGI [19]?
A: > 100 µM

Q: And the TGI [20]?
A: > 100 µM

Q: And the TGI [21]?
A: > 100 µM

Q: What about the TGI [22] of the same compound?
A: > 100 µM

Q: What about the TGI [23] of the same compound?
A: > 100 µM

Q: What about the TGI [24] of the same compound?
A: > 100 µM

Q: And the TGI [62]?
A: > 100 µM

Q: And the TGI [26]?
A: > 100 µM

Q: And the TGI [27]?
A: > 100 µM

Q: And the TGI [28]?
A: > 100 µM

Q: And the TGI [29]?
A: > 100 µM

Q: And the TGI [30]?
A: > 100 µM

Q: And the TGI [31]?
A: > 100 µM

Q: And the TGI [63]?
A: > 100 µM

Q: What about the TGI [64] of the same compound?
A: > 100 µM

Q: And the TGI [34]?
A: > 100 µM

Q: What about the TGI [65] of the same compound?
A: > 100 µM

Q: And the TGI [35]?
A: > 100 µM

Q: And the TGI [36]?
A: > 100 µM

Q: What about the TGI [37] of the same compound?
A: > 100 µM

Q: What about the TGI [38] of the same compound?
A: > 100 µM

Q: And the TGI [39]?
A: > 100 µM

Q: What about the TGI [40] of the same compound?
A: > 100 µM

Q: And the TGI [41]?
A: > 100 µM

Q: And the TGI [42]?
A: > 100 µM

Q: And the TGI [43]?
A: > 100 µM

Q: And the TGI [44]?
A: > 100 µM

Q: What about the TGI [46] of the same compound?
A: > 100 µM

Q: What about the TGI [47] of the same compound?
A: > 100 µM

Q: What about the TGI [48] of the same compound?
A: > 100 µM

Q: And the TGI [50]?
A: > 100 µM

Q: And the TGI [52]?
A: > 100 µM

Q: And the TGI [53]?
A: > 100 µM

Q: What about the TGI [54] of the same compound?
A: > 100 µM

Q: And the TGI [55]?
A: > 100 µM

Q: What about the TGI [66] of the same compound?
A: > 100 µM

Q: And the TGI [56]?
A: > 100 µM
